The values that follow come from US8492334B2, “Sustained intraocular delivery of drugs from biodegradable polymeric microparticles” (Yale University, priority 2007, dated 2013).

Where a name gives a salt, the structure may show the parent alone. Read-outs that look alike come from different tables or passages of the source.

The conditions of data set [1]: eye drops, cited from earlier work.
For data set [2] the following is noted: administered topically as a solution; cited from earlier work.
Data set [3] is described as follows: Release of timolol maleate in vitro from microspheres. In kind it is physicochemical. The settings on record: 20% w/w timolol maleate to PLGA; AOT 147 mM in first emulsion step, or Span 20 in its place. As for the experimental part: In 1.5 ml eppendorf tubes, 10 mg of timolol containing or blank microparticles were reconstituted with 1 ml of phosphate buffered saline (PBS). Samples were prepared in triplicate. The samples were incubated at 37° C. on a labquake rotating shaker (Barnstead/Thermolyne; Dubuque, Iowa, USA). At specific time points (1, 3, 5, and 8 hours; 1, 2, 3, 5, and 7 days; and once every 7 days thereafter until no pellets remained), the samples were centrifuged and the supernatant collected. 1 ml of PBS was added to the replace the withdrawn supernatant and the microparticles were resuspended and returned to the shaker. Supernatants for each of the sets of microspheres was frozen and stored at −80° C. for subsequent analysis using UV spectroscopy at 293 nm.
The drug loading was 20% weight of timolol maleate to weight of polymer. The particles were stored in deionized water at 37° C. Following centrifugation at predetermined time points, the supernatant was extracted and timolol maleate content measured. FIG. 3 depicts the same values expressed as a percentage of the loading values in FIG. 1.

For data set [4], the system named is adult rat retinal ganglion cells. The settings on record: cited from earlier work; for delay of onset of axotomy-induced RGC death: intraocular administration at the time of axotomy; for effect on survival of RGCs after axotomy: intraocular administration.

Regarding `CC(C)(C)NC[C@H](O)COc1nsnc1N1CCOCC1` [Timolol maleate], in data set [1], the “systemic absorption of the administered drug” value is “approximately 80%” and the “topically administered drug reaching the aqueous humor” value was “less than 1%”. Besides, the “systemic absorption of the administered drug” value in data set [1] (listed as timolol maleate) is on record as around 80%. The “average IOP reduction” value in data set [2] is on record as 20-35%.
Span 20: in data set [3], the “effect of added surfactant on loading or release of timolol maleate” value was “no significant effect”.

B1: BDNF: brain-derived neurotrophic factor, a protein neurotrophic factor (protein, UniProt P23560 19-247, looked up)
Neurotrophic factor BDNF …: APMKEANIRGQGGLAYPGVRTHGTLESVNGPKAGSRGLTSLADTFEHVIEELLDEDQKVRPNEENNKDADLYTSRVMLSSQVPLEPPLLFLLEEYKNYLDAANMSMRVRRHSDPARRGELSVCDSISEWVTAADKKTAVDMSGGTVTVLEKVPVSKGQLKQYFYETKCNPMGYTKEGCRGIDKRHWNSQCRTTQSYVRALTMDSKKRIGWRFIRIDTSCVCTLTIKRGR
For B1, in data set [4], the “delay of onset of axotomy-induced RGC death” value is “approximately 3 days” and the “effect on survival of RGCs after axotomy” value was “neuroprotective effect”.

B2: NT-3: neurotrophic factor in the NGF family of neurotrophins (protein, UniProt P20783 139-257, looked up)
Neurotrophin-3: YAEHKSHRGEYSVCDSESLWVTDKSSAIDIRGHQVTVLGEIKTGNSPVKQYFYETRCKEARPVKNGCRGIDDKHWNSQCKTSQTYVRALTSENNKLVGWRWIRIDTSCVCALSRKIGRT
Regarding B2, the “effect on survival of RGCs after axotomy” value in data set [4] is reported as “did not modify the survival of RGCs”.

B3: NT-4: neurotrophic factor in the NGF family of neurotrophins (protein, UniProt P34130 81-210, looked up)
Neurotrophin-4: GVSETAPASRRGELAVCDAVSGWVTDRRTAVDLRGREVEVLGEVPAAGGSPLRQYFFETRCKADNAEEGGPGAGGGGCRGVDRRHWVSECKAKQSYVRALTADAQGRVGWRWIRIDTACVCTLLSRTGRA
Consider B3, for which, in data set [4], the “delay of onset of axotomy-induced RGC death” value is reported as “approximately 3 days” and the “effect on survival of RGCs after axotomy” value is “neuroprotective effect”.
